Measurements as given in PubChem BioAssay AID1963975 (Molecular Pharmacology Branch, DTP, NCI, 2024).

Tested on: 624824-186-R-J2-PDC multicell spheroids, viability
Assay: Anticancer human tumor 624824-186-R-J2-PDC patient-derived colon adenocarcinoma cell line growth inhibition [PI3K]
Conditions: for IC50: curve of first compound; for viability, T/C: stronger effect = lower value
Procedure, shortened: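 Combination activity was assessed by viability in multicellular tumor spheroids carrying HUVEC and MSC components. Agents were tested with PI3K inhibitors from a Cmax-based top dose (or 10 microM) downward in half-log increments.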

[1] = second compound 0.0316 µM, first compound 0.0316 µM
[2] = second compound 0.0316 µM, first compound 0.1 µM
[3] = second compound 0.0316 µM, first compound 0.316 µM
[4] = second compound 0.0316 µM, first compound 1 µM
[5] = second compound 0.0316 µM, first compound 3.16 µM
[6] = second compound 0.0316 µM, first compound 10 µM
[7] = second compound 0.1 µM, first compound 0.0316 µM
[8] = second compound 0.1 µM, first compound 0.1 µM
[9] = second compound 0.1 µM, first compound 0.316 µM
[10] = second compound 0.1 µM, first compound 1 µM
[11] = second compound 0.1 µM, first compound 3.16 µM
[12] = second compound 0.1 µM, first compound 10 µM
[13] = second compound 0.316 µM, first compound 0.0316 µM
[14] = second compound 0.316 µM, first compound 0.1 µM
[15] = second compound 0.316 µM, first compound 0.316 µM
[16] = second compound 0.316 µM, first compound 1 µM
[17] = second compound 0.316 µM, first compound 3.16 µM
[18] = second compound 0.316 µM, first compound 10 µM
[19] = second compound 1 µM, first compound 0.0316 µM
[20] = second compound 1 µM, first compound 0.1 µM
[21] = second compound 1 µM, first compound 0.316 µM
[22] = second compound 1 µM, first compound 1 µM
[23] = second compound 1 µM, first compound 3.16 µM
[24] = second compound 1 µM, first compound 10 µM
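Note: spheroids exposed to agents for 7 days before viability read.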
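Throughout, for viability, T/C: 100% = DMSO vehicle treated spheroids.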

For `CC1(C)CCC(Nc2ncc(C(F)(F)F)c(-c3c[nH]c4c(P(C)(C)=O)c(C#N)ccc34)n2)CN1` (stereo unspecified) + CC(Nc1ccc2c(c1)OCCn1cc(N3C(=O)OCC3C(F)F)nc1-2)C(N)=O, the IC50 (second compound 0.00316 µM) was 3.92 µM, the IC50 (second compound 0.01 µM) was 3.61 µM and the IC50 (second compound 0.0316 µM) was 4.16 µM. It also gave an IC50 (second compound 0.1 µM) of 3.16 µM, an IC50 (second compound 0.316 µM) of 3.46 µM and an IC50 (second compound 1 µM) of 3.23 µM. The viability, T/C (second compound 0.00316 µM, first compound 0.0316 µM) was 73.8%, the viability, T/C (second compound 0.00316 µM, first compound 0.1 µM) was 84.7% and the viability, T/C (second compound 0.00316 µM, first compound 0.316 µM) was 86.4%. For the same molecule, the viability, T/C (second compound 0.00316 µM, first compound 1 µM) was 98.7%, the viability, T/C (second compound 0.00316 µM, first compound 3.16 µM) was 59.7% and the viability, T/C (second compound 0.00316 µM, first compound 10 µM) was 7.81%. The viability, T/C (second compound 0.01 µM, first compound 0.0316 µM) was 71.8%, the viability, T/C (second compound 0.01 µM, first compound 0.1 µM) was 70.3% and the viability, T/C (second compound 0.01 µM, first compound 0.316 µM) was 85%. It also gave a viability, T/C (second compound 0.01 µM, first compound 1 µM) of 99.8%, a viability, T/C (second compound 0.01 µM, first compound 3.16 µM) of 55.6% and a viability, T/C (second compound 0.01 µM, first compound 10 µM) of 7.27%. The viability, T/C [1] was 66.1%, the viability, T/C [2] was 72.4% and the viability, T/C [3] was 93.3%. For the same molecule, the viability, T/C [4] was 108%, the viability, T/C [5] was 63.9% and the viability, T/C [6] was 5.65%. It also gave a viability, T/C [7] of 74.4%, a viability, T/C [8] of 85.3% and a viability, T/C [9] of 87.1%. It also gave a viability, T/C [10] of 105%, a viability, T/C [11] of 50% and a viability, T/C [12] of 5.2%. For the same molecule, the viability, T/C [13] was 68.2%, the viability, T/C [14] was 81.9% and the viability, T/C [15] was 90.2%. The viability, T/C [16] was 93.7%, the viability, T/C [17] was 53.9% and the viability, T/C [18] was 4.99%. The viability, T/C [19] was 78.5%, the viability, T/C [20] was 83.1% and the viability, T/C [21] was 91.1%. It also gave a viability, T/C [22] of 72.9%, a viability, T/C [23] of 51.5% and a viability, T/C [24] of 5.93%.

`CNC(=O)c1ccc(N2C(=S)N(c3ccc(C#N)c(C(F)(F)F)c3)C(=O)C2(C)C)cc1F` + CC(Nc1ncnc2nc[nH]c12)c1cc2cccc(Cl)c2c(=O)n1-c1ccccc1 was tested, and the IC50 (second compound 0.0316 µM) was greater than 10 µM, the IC50 (second compound 0.1 µM) was greater than 10 µM and the IC50 (second compound 0.316 µM) was greater than 10 µM. The IC50 (second compound 1 µM) was greater than 10 µM, the IC50 (second compound 3.16 µM) was greater than 10 µM and the IC50 (second compound 10 µM) was greater than 10 µM. For the same molecule, the viability, T/C [1] was 94.8%, the viability, T/C [2] was 95.8% and the viability, T/C [3] was 74.2%. It also gave a viability, T/C [4] of 98.4%, a viability, T/C [5] of 102% and a viability, T/C [6] of 116%. It also gave a viability, T/C [7] of 104%, a viability, T/C [8] of 101% and a viability, T/C [9] of 100%. For the same molecule, the viability, T/C [10] was 95.8%, the viability, T/C [11] was 86.5% and the viability, T/C [12] was 124%. For the same molecule, the viability, T/C [13] was 106%, the viability, T/C [14] was 114% and the viability, T/C [15] was 78.8%. The viability, T/C [16] was 95.4%, the viability, T/C [17] was 93.1% and the viability, T/C [18] was 101%. It also gave a viability, T/C [19] of 94.9%, a viability, T/C [20] of 92.2% and a viability, T/C [21] of 101%. For the same molecule, the viability, T/C [22] was 84.4%, the viability, T/C [23] was 122% and the viability, T/C [24] was 117%. The viability, T/C (second compound 3.16 µM, first compound 0.0316 µM) was 115%, the viability, T/C (second compound 3.16 µM, first compound 0.1 µM) was 79.2% and the viability, T/C (second compound 3.16 µM, first compound 0.316 µM) was 91.1%. The viability, T/C (second compound 3.16 µM, first compound 1 µM) was 127%, the viability, T/C (second compound 3.16 µM, first compound 3.16 µM) was 83.2% and the viability, T/C (second compound 3.16 µM, first compound 10 µM) was 96.9%. The viability, T/C (second compound 10 µM, first compound 0.0316 µM) was 101%, the viability, T/C (second compound 10 µM, first compound 0.1 µM) was 120% and the viability, T/C (second compound 10 µM, first compound 0.316 µM) was 107%. The viability, T/C (second compound 10 µM, first compound 1 µM) was 90.7%, the viability, T/C (second compound 10 µM, first compound 3.16 µM) was 101% and the viability, T/C (second compound 10 µM, first compound 10 µM) was 117%.

`Cn1cnc2c(F)c(Nc3ccc(Br)cc3Cl)c(C(=O)NOCCO)cc21` + CC(Nc1ncnc2nc[nH]c12)c1cc2cccc(Cl)c2c(=O)n1-c1ccccc1 gave an IC50 (second compound 0.0316 µM) greater than 3 µM, an IC50 (second compound 0.1 µM) greater than 3 µM and an IC50 (second compound 0.316 µM) greater than 3 µM. The IC50 (second compound 1 µM) was greater than 3 µM, the IC50 (second compound 3.16 µM) was greater than 3 µM and the IC50 (second compound 10 µM) was greater than 3 µM. The viability, T/C (second compound 0.0316 µM, first compound 0.00949 µM) was 73.3%, the viability, T/C (second compound 0.0316 µM, first compound 0.03 µM) was 89.5% and the viability, T/C (second compound 0.0316 µM, first compound 0.0949 µM) was 69.2%. It also gave a viability, T/C (second compound 0.0316 µM, first compound 0.3 µM) of 63.5%, a viability, T/C (second compound 0.0316 µM, first compound 0.949 µM) of 68% and a viability, T/C (second compound 0.0316 µM, first compound 3 µM) of 60.6%. The viability, T/C (second compound 0.1 µM, first compound 0.00949 µM) was 79.8%, the viability, T/C (second compound 0.1 µM, first compound 0.03 µM) was 62.7% and the viability, T/C (second compound 0.1 µM, first compound 0.0949 µM) was 70.8%. It also gave a viability, T/C (second compound 0.1 µM, first compound 0.3 µM) of 55.8%, a viability, T/C (second compound 0.1 µM, first compound 0.949 µM) of 64.2% and a viability, T/C (second compound 0.1 µM, first compound 3 µM) of 62.1%. It also gave a viability, T/C (second compound 0.316 µM, first compound 0.00949 µM) of 86.9%, a viability, T/C (second compound 0.316 µM, first compound 0.03 µM) of 64.5% and a viability, T/C (second compound 0.316 µM, first compound 0.0949 µM) of 58.6%. The viability, T/C (second compound 0.316 µM, first compound 0.3 µM) was 59.5%, the viability, T/C (second compound 0.316 µM, first compound 0.949 µM) was 60.5% and the viability, T/C (second compound 0.316 µM, first compound 3 µM) was 61.2%. For the same molecule, the viability, T/C (second compound 1 µM, first compound 0.00949 µM) was 75.2%, the viability, T/C (second compound 1 µM, first compound 0.03 µM) was 75.3% and the viability, T/C (second compound 1 µM, first compound 0.0949 µM) was 65.1%. For the same molecule, the viability, T/C (second compound 1 µM, first compound 0.3 µM) was 67%, the viability, T/C (second compound 1 µM, first compound 0.949 µM) was 58.5% and the viability, T/C (second compound 1 µM, first compound 3 µM) was 53.5%. For the same molecule, the viability, T/C (second compound 3.16 µM, first compound 0.00949 µM) was 78.2%, the viability, T/C (second compound 3.16 µM, first compound 0.03 µM) was 74.7% and the viability, T/C (second compound 3.16 µM, first compound 0.0949 µM) was 60.6%. The viability, T/C (second compound 3.16 µM, first compound 0.3 µM) was 59.6%, the viability, T/C (second compound 3.16 µM, first compound 0.949 µM) was 56.2% and the viability, T/C (second compound 3.16 µM, first compound 3 µM) was 50.6%. For the same molecule, the viability, T/C (second compound 10 µM, first compound 0.00949 µM) was 72.7%, the viability, T/C (second compound 10 µM, first compound 0.03 µM) was 71.8% and the viability, T/C (second compound 10 µM, first compound 0.0949 µM) was 67.4%. For the same molecule, the viability, T/C (second compound 10 µM, first compound 0.3 µM) was 60.7%, the viability, T/C (second compound 10 µM, first compound 0.949 µM) was 57.5% and the viability, T/C (second compound 10 µM, first compound 3 µM) was 51.2%.
